One data set can be described thus: Measurement of logP values by HPLC on reversed phase columns (EEC directive 79/831 Annex V.A8). It is filed as physicochemical. The note with it: method [a].
With `CCC1(CC)CCCc2c(NC(=O)c3cn(C)nc3C(F)F)cccc21` [Example 93], the “LogP^[a]” value is 4.03^[a].

As to `Cn1cc(C(=O)Nc2cccc3c2C(C)(C)CCC3)c(C(F)F)n1` [Example 92], the “LogP^[a]” value was 2.99^[a].

As for `CCc1nc(C)sc1C(=O)Nc1cccc2c1CCC(C)(C)C2C` (racemic) [Example 19], the “LogP^[a]” value is 4.19^[a].

Turning to `CC1CCc2c(NC(=O)c3cn(C)nc3C(F)F)cccc2C1(C)C` (racemic) [Example 1], the “LogP^[a]” value is 3.60^[a].

In the case of `CC1(C)CCc2c(cccc2NC(=O)c2nccnc2I)C1` [Example 67], the “LogP^[a]” value is 4.01^[a].

As to `Cn1cc(C(=O)Nc2cccc3c2CCCC3)c(C(F)(F)F)n1` [Example 28], the “LogP^[a]” value was 2.92^[a].

On to `Cc1nn(C)c(C)c1C(=O)Nc1cccc2c1CCC(C)C2C` (mixture of isomers) [Example 11], for which the “LogP^[a]” value is 3.00^[a].

As for `Cc1nc(C(F)F)c(C(=O)Nc2cccc3c2CCC(C)C3C)s1` (mixture of isomers) [Example 35], the “LogP^[a]” value was 3.78^[a].

Take `CON=C1CCCc2c(NC(=O)c3sc(C)nc3C(F)F)cccc21` [Example 48]: the “LogP^[a]” value is 2.92^[a].

For `Cc1nn(C)c(C)c1C(=O)Nc1cccc2c1CC(C)(C)CC2` [Example 23], the “LogP^[a]” value was 2.90^[a].

With `CCON=C1CCCc2c(NC(=O)C3=C(C(F)(F)F)OCCS3)cccc21` [Example 74], the “LogP^[a]” value is 3.63^[a].

Consider `CC1(C)CCc2c(cccc2NC(=O)c2nccnc2C(F)(F)F)C1` [Example 68], for which the “LogP^[a]” value was 3.99^[a].

For `CC1CCc2cccc(NC(=O)c3cn(C)nc3C(F)F)c2C1(C)O` (racemic) [Example 14], the “LogP^[a]” value was 3.96^[a].

Regarding `CC1(C)CCCc2c(NC(=O)c3ccsc3I)ccc(F)c21` [Example 63], the “LogP^[a]” value was 4.29^[a].

With `CON=C1CCCc2c(NC(=O)c3ccsc3I)cccc21` [Example 56], the “LogP^[a]” value was 3.37^[a].

As for `CC1(C)CCCc2c(NC(=O)c3ccoc3C(F)F)ccc(F)c21` [Example 51], the “LogP^[a]” value was 4.06^[a].

`CC1(C)CCc2c(cccc2NC(=O)c2ccsc2I)C1` [Example 87]: the “LogP^[a]” value is 4.34^[a].

Consider `CCON=C1CCCc2c(NC(=O)c3ccoc3C(F)F)cccc21` [Example 79], for which the “LogP^[a]” value is 3.68^[a].

As for `Cc1nn(C)c(C)c1C(=O)Nc1cccc2c1CCC(C)(C)C2=O` [Example 31], the “LogP^[a]” value was 2.04^[a].

As to `C=C1c2cccc(NC(=O)c3c(C)nn(C)c3C)c2CCC1(C)C` [Example 6], the “LogP^[a]” value was 3.05^[a].

Turning to `Cc1nn(C)c(F)c1C(=O)Nc1cccc2c1CCCC2(C)C` [Example 61], the “LogP^[a]” value was 3.35^[a].

`Cc1nn(C)c(C)c1C(=O)Nc1cccc2c1CCC(C)(C)C2C` (racemic) [Example 20]: the “LogP^[a]” value was 3.25^[a].

Turning to `C=C1c2cccc(NC(=O)c3c(C)nn(C)c3F)c2CCC1(C)C` [Example 9], the “LogP^[a]” value was 3.48^[a].

Turning to `Cc1nn(C)c(F)c1C(=O)Nc1cccc2c1CCC(C)(C)C2C` (racemic) [Example 21], the “LogP^[a]” value is 3.70^[a].

Turning to `CON=C1CCCc2c(NC(=S)c3ccoc3C(F)F)cccc21` [Example 83], the “LogP^[a]” value was 3.70^[a].

On to `CON=C1CCCc2c(NC(=O)c3cn(C)nc3C(F)F)cccc21` [Example 38], for which the “LogP^[a]” value was 2.56^[a].

With `CON=C1CCCc2c(NC(=O)c3ccsc3Br)cccc21` [Example 49], the “LogP^[a]” value is 3.37^[a].

On to `CCc1nc(C)sc1C(=O)Nc1cccc2c1CC(C)(C)CC2` [Example 24], for which the “LogP^[a]” value was 3.79^[a].

As to `Cn1cc(C(=O)Nc2cccc3c2CCCC3)c(C(F)F)n1` [Example 27], the “LogP^[a]” value is 2.68^[a].

For the compound `CCc1nc(C)sc1C(=O)Nc1cccc2c1CCCC2=NOC` [Example 47], the “LogP^[a]” value was 3.02^[a].

On to `Cn1cc(C(=S)Nc2ccc(F)c3c2CCCC3(C)C)c(C(F)F)n1` [Example 85], for which the “LogP^[a]” value was 3.87^[a].

Turning to `Cn1cc(C(=O)Nc2cccc3c2CC(C)(C)CC3)c(C(F)F)n1` [Example 5], the “LogP^[a]” value was 3.25^[a].

As to `CON=C1CCCc2c(NC(=O)c3nccnc3I)cccc21` [Example 54], the “LogP^[a]” value is 2.94^[a].

Regarding `CON=C1CCCc2c(NC(=O)c3c(C(F)(F)F)nn(C)c3F)cccc21` [Example 75], the “LogP^[a]” value is 3.11^[a].

Regarding `CC1CCc2c(NC(=O)c3cn(C)nc3C(F)F)cccc2C1C` (mixture of isomers) [Example 12], the “LogP^[a]” value is 3.37^[a].

As for `Cc1nc(C(F)F)c(C(=O)Nc2cccc3c2CCC(C)(C)C3C)s1` (racemic) [Example 18], the “LogP^[a]” value is 4.09^[a].

On to `CON=C1CCCc2c(NC(=O)c3c(C)oc(C)c3C)cccc21` [Example 71], for which the “LogP^[a]” value was 3.55^[a].

As to `C=C1c2cccc(NC(=O)c3sc(C)nc3C(F)F)c2CCC1(C)C` [Example 7], the “LogP^[a]” value is 3.87^[a].

On to `CON=C1CCCc2c(NC(=O)c3nccnc3C(F)(F)F)cccc21` [Example 55], for which the “LogP^[a]” value is 3.08^[a].

As to `CCON=C1CCCc2c(NC(=S)c3nccnc3C(F)(F)F)cccc21` [Example 91], the “LogP^[a]” value is 3.83^[a].

Turning to `Cc1nn(C)c(F)c1C(=O)Nc1cccc2c1CCC(C)C2C` (mixture of isomers) [Example 13], the “LogP^[a]” value was 3.41^[a].

`Cc1oc(C)c(C(=O)Nc2cccc3c2CCC(C)(C)C3)c1C` [Example 65]: the “LogP^[a]” value was 4.59^[a].

On to `CC1(C)CCCc2c(NC(=O)C3=C(C(F)(F)F)OCCS3)ccc(F)c21` [Example 57], for which the “LogP^[a]” value is 4.01^[a].

Take `CC1(C)CCc2c(cccc2NC(=O)C2=C(C(F)(F)F)OCCS2)C1` [Example 69]: the “LogP^[a]” value is 3.99^[a].

Regarding `CCON=C1CCCc2c(NC(=O)c3nccnc3C(F)(F)F)cccc21` [Example 72], the “LogP^[a]” value is 3.55^[a].

`CCON=C1CCCc2c(NC(=O)c3c(C)nn(C)c3F)cccc21` [Example 40]: the “LogP^[a]” value is 2.86^[a].

As for `CCON=C1CCCc2c(NC(=O)c3c(C)nn(C)c3C)cccc21` [Example 41], the “LogP^[a]” value was 2.58^[a].

As to `CON=C1CCCc2c(NC(=O)c3c(C)nn(C)c3F)cccc21` [Example 39], the “LogP^[a]” value was 2.47^[a].

Consider `CCON=C1CCCc2c(NC(=O)c3cn(C)nc3C(F)F)cccc21` [Example 42], for which the “LogP^[a]” value was 2.96^[a].

As for `CC1CCC(C)(C)c2cccc(NC(=O)c3cn(C)nc3C(F)F)c21` (racemic) [Example 17], the “LogP^[a]” value was 3.44^[a].

Take `CCON=C1CCCc2c(NC(=O)c3nccnc3I)cccc21` [Example 70]: the “LogP^[a]” value was 3.44^[a].

On to `Cc1oc(C)c(C(=O)Nc2ccc(F)c3c2CCCC3(C)C)c1C` [Example 62], for which the “LogP^[a]” value was 4.51^[a].

Turning to `Cc1nn(C)c(C)c1C(=O)Nc1cccc2c1CCC(C)(C)C2` [Example 45], the “LogP^[a]” value is 2.94^[a].

Consider `CCc1nc(C)sc1C(=O)Nc1cccc2c1CCC(C)(C)C2=O` [Example 32], for which the “LogP^[a]” value is 2.71^[a].

On to `CC1(C)CCc2c(cccc2NC(=O)c2ccsc2Br)C1` [Example 66], for which the “LogP^[a]” value was 4.41^[a].

`Cn1cc(C(=O)Nc2cccc3c2CCCC3(C)C)c(C(F)F)n1` [Example 60]: the “LogP^[a]” value is 3.39^[a].

For `Cc1nc(C(F)F)c(C(=O)Nc2cccc3c2CCC(C)(C)C3=O)s1` [Example 33], the “LogP^[a]” value is 2.73^[a].

For `CC1(C)CCCc2c(NC(=O)c3nccnc3I)ccc(F)c21` [Example 50], the “LogP^[a]” value was 3.92^[a].

Take `CCON=C1CCCc2c(NC(=O)c3c(C(F)(F)F)nn(C)c3F)cccc21` [Example 73]: the “LogP^[a]” value was 3.57^[a].

For the compound `Cc1nc(C(F)F)c(C(=O)Nc2cccc3c2CC(C)(C)CC3)s1` [Example 25], the “LogP^[a]” value was 3.72^[a].

For `CCON=C1CCCc2c(NC(=O)c3ccsc3Br)cccc21` [Example 77], the “LogP^[a]” value was 3.87^[a].

For `Cn1cc(C(=O)Nc2cccc3c2CCC(C)(C)C3)c(C(F)F)n1` [Example 43], the “LogP^[a]” value was 3.35^[a].

On to `CC1(C)CCCc2c(NC(=O)c3nccnc3C(F)(F)F)ccc(F)c21` [Example 52], for which the “LogP^[a]” value is 3.96^[a].

With `CCON=C1CCCc2c(NC(=O)c3sc(C)nc3CC)cccc21` [Example 81], the “LogP^[a]” value was 3.37^[a].

As for `CC1(C)CCc2c(cccc2NC(=O)c2ccoc2C(F)F)C1` [Example 64], the “LogP^[a]” value was 4.06^[a].

`Cn1cc(C(=O)Nc2cccc3c2CCC(C)(C)C3=O)c(C(F)F)n1` [Example 29]: the “LogP^[a]” value was 2.40^[a].

With `CC1c2cccc(NC(=O)c3cn(C)nc3C(F)F)c2CCC1(C)C` (racemic) [Example 22], the “LogP^[a]” value was 3.68^[a].

On to `CCON=C1CCCc2c(NC(=O)c3ccsc3I)cccc21` [Example 84], for which the “LogP^[a]” value is 3.83^[a].

For the compound `C=C1c2cccc(NC(=O)c3sc(C)nc3CC)c2CCC1(C)C` [Example 8], the “LogP^[a]” value was 3.99^[a].

On to `CON=C1CCCc2c(NC(=O)c3ccoc3C(F)F)cccc21` [Example 53], for which the “LogP^[a]” value was 3.25^[a].

With `CCON=C1CCCc2c(NC(=S)c3ccoc3C(F)F)cccc21` [Example 89], the “LogP^[a]” value was 4.11^[a].

Turning to `Cc1nc(C(F)F)c(C(=O)Nc2ccc(F)c3c2CCCC3(C)C)s1` [Example 58], the “LogP^[a]” value is 3.79^[a].

Take `Cc1nn(C)c(F)c1C(=O)Nc1cccc2c1CCC(C)(C)C2=O` [Example 30]: the “LogP^[a]” value is 2.28^[a].

The data set is the same for the next values; noted with them: method [a], HPLC on reversed phase columns.
`CC(C)C1CCCc2c(NC(=O)c3cn(C)nc3C(F)(F)F)cccc21` (stereo not shown) [Example 99]: the “LogP[a]” value is 3.96^[a].

Staying with this data set, now noted: pH 2.7.
`C=C1c2c(cccc2NC(=O)c2cn(C)nc2C(F)F)CCC1(C)C` [Example 16, 3-(difluoromethyl)-N-(7,7-dimethyl-8-methylene-5,6,7,8-tetrahydronaphthalen-1-yl)-1-methyl-1H-pyrazole-4-carboxamide]: the chromatographic logP was 2.31.

Staying with this data set, now noted: reversed phase HPLC columns; method [a]: LC-MS at pH 2.7, 0,1% formic acid in water / acetonitrile, gradient 10% to 95% acetonitrile; amines of formula (III-a); read-out: LogP^[a].
With `CC1(C)CCc2c(N)cccc2C1` [III-a-3, 6,6-dimethyl-5,6,7,8-tetrahydronaphthalen-1-amine], the chromatographic logP was 1.88.

The values above are taken from US9630943B2, “Tetrahydronaphthyl(thio) carboxamides” (BAYER CROPSCIENCE AG, priority 2012, dated 2017).
